Measurements taken from patent publication US4339454A, “Alkoxymethyl and benzyloxymethyl phenobarbital therapeutic compositions” (priority 1978, dated 1982).

Assays:
[1] = system: maximal electroshock; assay: Anticonvulsant effectiveness against maximal electroshock, mice; type: in vivo, mice (Charles River strain); settings: for Time of peak activity: mice, oral, maximal electroshock
Description: (§1) All tests, with the exceptions noted, were conducted on adult albino male mice (Charles River strain); the dosage consisted of the active agent suspended in 10% aqueous acacia and was administered orally unless otherwise indicated.
Anticonvulsant effectiveness of each agent against maximal electroshock was determined at the time of peak effect. The time of peak anticonvulsant activity was determined by administering dosages of various sizes to a group of animals and administering a maximal electroshock to the animals at intervals thereafter by supplying 60 ma. current through a corneal electrode for 0.2 second. […] The time of peak effect thus determined was used for all subsequent tests of anticonvulsant activity on the same active agent.

[2] = literature / prior knowledge; cited from earlier work
[3] = system: Metrazol; assay: Anticonvulsant effectiveness against convulsive dose of Metrazol, mice; type: in vivo, mice (Charles River strain); settings: oral
Description: as §1
Anticonvulsant effectiveness was determined against a convulsive dose of Metrazol (106.25 mg/kg) injected subcutaneously; the criterior for effectiveness was failure to show clonic convulsive seizures. Anticonvulsant activity was determined against a lethal dose of strychnine sulfate (1.5 mg/kg) injected subcutaneously; the criterion was failure to die, even though seizures appeared.

[4] = system: central nervous system; assay: Hypnotic activity: loss of the righting reflex (onset of sleep); type: in vivo, mice (Charles River strain); settings: any dosage less than a lethal dose for the compounds of the invention
Description: as §1

[5] = prior knowledge; cited from earlier work

CCC1(c2ccccc2)C(=O)N(COC)C(=O)N(COC)C1=O [Example 1, 1,3-dimethoxymethyl-5-ethyl-5-phenyl barbituric acid]
Duration of anticonvulsant effect against maximal electroshock (in words) ([1]; 0.1 millimole/kg): protection continued at about the same level for more than eight hours | Onset of protection against maximal electroshock (in words) ([1]; 0.1 millimole/kg): only after two hours | Time of peak activity [1]: 2 h | Change in ED50 to protect against maximal electroshock on repeated daily dosage ([1]; repeated daily dosage of same animals for four days): no significant change | Hypnotic activity, known or reported [2]: without effect

CCC1(CC)C(=O)N(COC)C(=O)N(COC)C1=O [Example 9, 1,3-dimethoxymethyl-5,5-diethylbarbituric acid]
Time of peak activity [3]: 1 h

CCC1(c2ccccc2)C(=O)NC(=O)NC1=O [phenobarbital sodium, reference compound]
Duration of anticonvulsant effect against maximal electroshock (in words) ([1]; 0.1 millimole/kg): protection began to decrease after four hours and was nearly gone by eight hours | Onset of protection against maximal electroshock ([1]; 0.1 millimole/kg): less than 0.5 hour

COCN1C(=O)NC(c2ccccc2)(c2ccccc2)C1=O [Example 2, 3-methoxymethyl-5,5-diphenylhydantoin]
Onset of anticonvulsant activity (maximal electroshock) after ingestion ([1]; after ingestion): less than 0.5 hour

CCCCCCCCCCCCOCN1C(=O)N(COCCCCCCCCCCCC)C(=O)C(CC)(CC)C1=O [Example 10, 1,3-di-n-dodecyloxymethyl-5,5-diethyl barbituric acid]
Time of peak activity (in words) [3]: about one hour

CCCCCCCCCCCCOCN1C(=O)N(COCCCCCCCCCCCC)C(=O)C(CC)(c2ccccc2)C1=O [Example 8, 1,3-dilauryloxymethyl-5-ethyl-5-phenyl barbituric acid]
Time of peak activity [1]: 2 h

CCC1(c2ccccc2)C(=O)NC(=O)NC1=O [Phenobarbital, phenobarbital]
Hypnotic activity (loss of the righting reflex) [4]: did exhibit hypnotic activity | Hypnotic activity, known or reported [2]: exhibits hypnotic activity

O=C1NC(=O)C(c2ccccc2)(c2ccccc2)N1 [diphenylhydantoin]
Hypnotic activity, known or reported [2]: not hypnotic | Undesirable side effects [5]: hypertrophic gingivitis, megaloblastic anemia, toxic psychoses, and hirsutism
